System: RA patients
Experiment: Total cholesterol determination, Study 1 (RA patients with inadequate response to methotrexate, add-on to MTX)
Assay type: in vivo, human
Conditions: for [Total cholesterol] Median CFB / [total cholesterol] Mean CFB: Study 1 12 weeks results
Method: Double-blind, placebo-controlled add on study in subjects with moderately to severely active RA who have an inadequate response to methotrexate (MTX) (oral or parenteral).
595 subjects randomized to one of 6 dose regimens of Compound 1 (dosed as a [Compound 1:HCl:3H2O]) (3 dose levels administered either once or twice daily) or placebo on top of each subject's stable dose of MTX.
Compound 1 (dosed as a [Compound 1:HCl:3H2O]) is dosed for twelve weeks once daily (q.d.) (50 mg, 100 mg or 200 mg) or twice daily (b.i.d.) (25 mg, 50 mg or 100 mg); or placebo.
At Week 12, the subjects on placebo who have not achieved 20% improvement in swollen joint count (SJC66) and tender joint count (TJC68) are re-randomized automatically to receive Compound 1 (dosed as a [Compound 1:HCl:3H2O]) either at 100 mg q.d. or 50 mg b.i.d. doses in a blinded fashion; subjects on 50 mg q.d. who have not achieved 20% improvement in SJC66 and TJC68 will be assigned to 100 mg q.d. and subjects on 25 mg b.i.d. that have not achieved a 20% improvement in SJC66 and TJC68 will be assigned to 50 mg b.i.d. Subjects who switch treatment at week 12 are handled as if they discontinued at week 12 for the purpose of statistical analysis, whereas subjects in the other groups will maintain their randomized treatment until Week 24.
This method is based on the determination of Δ^4 cholestenone after enzymatic cleavage of the cholesterol ester by cholesterol esterase, conversion of cholesterol by cholesterol oxidase, and subsequent measurement by the Trinder reaction of the hydrogen peroxide formed (Allain et al., 1974).
Cholesterol esters are cleaved by the action of cholesterol esterase to yield free cholesterol and fatty acids. Cholesterol oxidase then catalyzes the oxidation of cholesterol to cholest-4-en-3-one and hydrogen peroxide. In the presence of peroxidase, the hydrogen peroxide formed effects the oxidative coupling of phenol and 4-aminophenazone to form a red quinone-imine dye. The color intensity of the dye formed is directly proportional to the cholesterol concentration. It is determined by measuring the increase in absorbance.
Human serum and plasma samples cholesterol determination was done on a Roche/Hitachi Cobas c 701/702 system which automatically calculate the analyte concentration of each sample.

SMILES: O=C(Nc1nc2cccc(-c3ccc(CN4CCS(=O)(=O)CC4)cc3)n2n1)C1CC1 [Compound 1, cyclopropanecarboxylic acid {5-[4-(1,1-dioxo-thiomorpholin-4-ylmethyl)-phenyl]-[1,2,4]triazolo[1,5-a]pyridin-2yl}-amide]
- [total cholesterol] Mean percentage CFB - 12 weeks results (50 mg q.d. (N = 82), week 1): 1%
- [total cholesterol] Mean percentage CFB - 12 weeks results (50 mg q.d. (N = 82), week 2): 1%
- [total cholesterol] Mean percentage CFB - 12 weeks results (50 mg q.d. (N = 82), week 4): 1%
- [total cholesterol] Mean percentage CFB - 12 weeks results (50 mg q.d. (N = 82), week 8): 3%
- [total cholesterol] Mean percentage CFB - 12 weeks results (50 mg q.d. (N = 82), week 12): 5%
- [total cholesterol] Mean percentage CFB - 12 weeks results (100 mg q.d. (N = 85), week 1): 4%
- [total cholesterol] Mean percentage CFB - 12 weeks results (100 mg q.d. (N = 85), week 2): 2%
- [total cholesterol] Mean percentage CFB - 12 weeks results (100 mg q.d. (N = 85), week 4): 5%
- [total cholesterol] Mean percentage CFB - 12 weeks results (100 mg q.d. (N = 85), week 8): 4%
- [total cholesterol] Mean percentage CFB - 12 weeks results (100 mg q.d. (N = 85), week 12): 5%
- [total cholesterol] Mean percentage CFB - 12 weeks results (200 mg q.d. (N = 86), week 1): 6%
- [total cholesterol] Mean percentage CFB - 12 weeks results (200 mg q.d. (N = 86), week 2): 7%
- [total cholesterol] Mean percentage CFB - 12 weeks results (200 mg q.d. (N = 86), week 4): 8%
- [total cholesterol] Mean percentage CFB - 12 weeks results (200 mg q.d. (N = 86), week 8): 10%
- [total cholesterol] Mean percentage CFB - 12 weeks results (200 mg q.d. (N = 86), week 12): 10%
- [total cholesterol] Mean percentage CFB - 12 weeks results (2 x 25 mg b.i.d. (N = 86), week 1): 2%
- [total cholesterol] Mean percentage CFB - 12 weeks results (2 x 25 mg b.i.d. (N = 86), week 2): 3%
- [total cholesterol] Mean percentage CFB - 12 weeks results (2 x 25 mg b.i.d. (N = 86), week 4): 3%
- [total cholesterol] Mean percentage CFB - 12 weeks results (2 x 25 mg b.i.d. (N = 86), week 8): 3%
- [total cholesterol] Mean percentage CFB - 12 weeks results (2 x 25 mg b.i.d. (N = 86), week 12): 5%
- [total cholesterol] Mean percentage CFB - 12 weeks results (2 x 50 mg b.i.d. (N = 85), week 1): 3%
- [total cholesterol] Mean percentage CFB - 12 weeks results (2 x 50 mg b.i.d. (N = 85), week 2): 4%
- [total cholesterol] Mean percentage CFB - 12 weeks results (2 x 50 mg b.i.d. (N = 85), week 4): 7%
- [total cholesterol] Mean percentage CFB - 12 weeks results (2 x 50 mg b.i.d. (N = 85), week 8): 6%
- [total cholesterol] Mean percentage CFB - 12 weeks results (2 x 50 mg b.i.d. (N = 85), week 12): 6%
- [total cholesterol] Mean percentage CFB - 12 weeks results (2 x 100 mg b.i.d. (N = 84), week 1): 7%
- [total cholesterol] Mean percentage CFB - 12 weeks results (2 x 100 mg b.i.d. (N = 84), week 2): 8%
- [total cholesterol] Mean percentage CFB - 12 weeks results (2 x 100 mg b.i.d. (N = 84), week 4): 10%
- [total cholesterol] Mean percentage CFB - 12 weeks results (2 x 100 mg b.i.d. (N = 84), week 8): 15%
- [total cholesterol] Mean percentage CFB - 12 weeks results (2 x 100 mg b.i.d. (N = 84), week 12): 15%
- [Total cholesterol] Median CFB (50 mg q.d., week 1): 0.05 mmol/L
- [total cholesterol] Mean CFB (50 mg q.d., week 1): 0.0 mmol/L
- [Total cholesterol] Median CFB (50 mg q.d., week 2): 0.04 mmol/L
- [total cholesterol] Mean CFB (50 mg q.d., week 2): 0.1 mmol/L
- [Total cholesterol] Median CFB (50 mg q.d., week 4): 0.06 mmol/L
- [total cholesterol] Mean CFB (50 mg q.d., week 4): 0.1 mmol/L
- [Total cholesterol] Median CFB (50 mg q.d., week 8): 0.16 mmol/L
- [total cholesterol] Mean CFB (50 mg q.d., week 8): 0.1 mmol/L
- [Total cholesterol] Median CFB (50 mg q.d., week 12): 0.20 mmol/L
- [total cholesterol] Mean CFB (50 mg q.d., week 12): 0.2 mmol/L
- [Total cholesterol] Median CFB (100 mg q.d., week 1): 0.14 mmol/L
- [total cholesterol] Mean CFB (100 mg q.d., week 1): 0.2 mmol/L
- [Total cholesterol] Median CFB (100 mg q.d., week 2): 0.07 mmol/L
- [total cholesterol] Mean CFB (100 mg q.d., week 2): 0.1 mmol/L
- [Total cholesterol] Median CFB (100 mg q.d., week 4): 0.25 mmol/L
- [total cholesterol] Mean CFB (100 mg q.d., week 4): 0.2 mmol/L
- [Total cholesterol] Median CFB (100 mg q.d., week 8): 0.09 mmol/L
- [total cholesterol] Mean CFB (100 mg q.d., week 8): 0.1 mmol/L
- [Total cholesterol] Median CFB (100 mg q.d., week 12): 0.30 mmol/L
- [total cholesterol] Mean CFB (100 mg q.d., week 12): 0.2 mmol/L
- [Total cholesterol] Median CFB (200 mg q.d., week 1): 0.25 mmol/L
- [total cholesterol] Mean CFB (200 mg q.d., week 1): 0.3 mmol/L
- [Total cholesterol] Median CFB (200 mg q.d., week 2): 0.34 mmol/L
- [total cholesterol] Mean CFB (200 mg q.d., week 2): 0.3 mmol/L
- [Total cholesterol] Median CFB (200 mg q.d., week 4): 0.33 mmol/L
- [total cholesterol] Mean CFB (200 mg q.d., week 4): 0.4 mmol/L
- [Total cholesterol] Median CFB (200 mg q.d., week 8): 0.54 mmol/L
- [total cholesterol] Mean CFB (200 mg q.d., week 8): 0.4 mmol/L
- [Total cholesterol] Median CFB (200 mg q.d., week 12): 0.26 mmol/L
- [total cholesterol] Mean CFB (200 mg q.d., week 12): 0.5 mmol/L
- [Total cholesterol] Median CFB (2 x 25 mg b.i.d., week 1): 0.12 mmol/L
